Residues, ends and D or L forms follow the SMILES beside them.
Assay: Nerinetide plasma levels in ESCAPE-NA1 subjects with and without alteplase
Format: in vivo, human
Method: All patients had standard assessments of demographic characteristics, medical history, laboratory values and stroke severity (NIHSS score). In some patients, up to 6 consecutive blood samples were drawn following dosing for pharmacokinetic analysis of nerinetide levels.
Nerinetide plasma levels were obtained from 22 subjects in ESCPAE-NA1 and previously acquired data from 8 healthy volunteer subjects receiving a single dose of 2.6 mg/kg nerinetide intravenously. Time 0 is a preinfusion time-point. […] The bars represent standard error of the mean. […] In the presence of alteplase, nerinetide's maximum level was reduced by more than 50% with decline to background level by 60 minutes. […] (p=0.0119, mixed effects linear regression).

CC[C@H](C)[C@H](NC(=O)[C@H](CO)NC(=O)[C@H](CO)NC(=O)[C@H](CC(C)C)NC(=O)[C@H](CCCCN)NC(=O)[C@H](CCCN=C(N)N)NC(=O)[C@H](CCCN=C(N)N)NC(=O)[C@H](CCCN=C(N)N)NC(=O)[C@H](CCC(N)=O)NC(=O)[C@H](CCCN=C(N)N)NC(=O)[C@H](CCCN=C(N)N)NC(=O)[C@H](CCCCN)NC(=O)[C@H](CCCCN)NC(=O)[C@H](CCCN=C(N)N)NC(=O)CNC(=O)[C@@H](N)Cc1ccc(O)cc1)C(=O)N[C@@H](CCC(=O)O)C(=O)N[C@@H](CO)C(=O)N[C@@H](CC(=O)O)C(=O)N[C@H](C(=O)O)C(C)C [Nerinetide] (H-YGRKKRRQRRRKLSSIESDV-OH)
time of decline of plasma level to background (absence of alteplase): about 120 minutes
time at which plasma peak levels were reached (absence of alteplase, 2.6 mg/kg iv): ten
AUC change (presence of alteplase): similarly reduced
reduction of maximum plasma level (presence of alteplase): more than 50%
time of decline of plasma level to background (presence of alteplase): 60 min

— US20230139826A1 (NONO INC., priority 2020, published 2023)
